Experimental data reported in ChEMBL document CHEMBL3112546, “Synthetic α-(aminomethyl)-γ-butyrolactones and their anti-pancreatic cancer activities” (2013).
Structures can show the parent of a compound that is named as a salt. Active and inactive are the calls of the source. The calls are words filed in the database; no cut-off is given here.

Key:
[1] = Antiproliferative activity against human BxPC3 cells assessed as cell growth at 10 uM after 72 hrs by CellTitre assay relative to control; type: functional; conditions: BXPC-3, 72 h, read-out: Activity
[2] = Antiproliferative activity against human MIAPaCa2 cells assessed as cell growth at 10 uM after 72 hrs by CellTitre assay relative to control; type: functional; conditions: MIA PaCa-2, 72 h, read-out: Activity
[3] = Antiproliferative activity against human PANC1 cells assessed as cell growth at 10 uM after 72 hrs by CellTitre assay relative to control; type: functional; conditions: PANC-1, 72 h, read-out: Activity
PANC-1 = assay: Antiproliferative activity against human PANC1 cells assessed as cell growth at >100 uM after 72 hrs by CellTitre assay relative to control; type: functional, cell-based

In the case of O=C1O[C@@H](c2ccccc2)[C@H](c2ccccc2)[C@H]1CN1CCCC1 (racemic), the growth at 10 µM [1] is reported as 0%, the growth at 10 µM [2] is reported as 1% and the growth at 10 µM [3] is reported as 3%.

In the case of O=C1O[C@H](c2ccccc2)[C@H](c2ccccc2)[C@@H]1CN1CCCC1 (racemic), the growth at 10 µM [1] is reported as 0%, the growth at 10 µM [2] is reported as 17% and the growth at 10 µM [3] is reported as 11%.

CN(C)C[C@@H]1C(=O)O[C@H](c2ccccc2)[C@@H]1c1ccccc1 (racemic) gave a growth at 10 µM [1] of 1%, a growth at 10 µM [2] of 9% and a growth at 10 µM [3] of 30%.

O=C1O[C@H](c2ccccc2)[C@H](c2ccccc2)[C@@H]1CN(Cc1ccccc1)Cc1ccccc1 (racemic) showed a growth at 10 µM [1] of 34%, a growth at 10 µM [2] of 33% and a growth at 10 µM [3] of 75%.

Work on O=C1O[C@H](c2ccccc2)[C@H](c2ccccc2)[C@@H]1CN1CCCCC1 (racemic) yielded a growth at 10 µM [1] of 3%, a growth at 10 µM [2] of 11% and a growth at 10 µM [3] of 8%.

For O=C1O[C@@H](c2ccccc2)[C@H](c2ccccc2)[C@H]1CN(Cc1ccccc1)Cc1ccccc1 (racemic), the Activity (PANC-1) was “inactive”, the growth at 10 µM [1] was 50% and the growth at 10 µM [2] was 35%.

C=C1C(=O)O[C@@H](c2ccccc2)[C@@H]1c1ccccc1 (racemic) gave a growth at 10 µM [1] of 1%, a growth at 10 µM [2] of 1% and a growth at 10 µM [3] of 1%.

CCN(CC)C[C@@H]1C(=O)O[C@H](c2ccccc2)[C@@H]1c1ccccc1 (racemic) showed a growth at 10 µM [1] of 1%, a growth at 10 µM [2] of 17% and a growth at 10 µM [3] of 42%.

Molecule O=C1O[C@@H](c2ccccc2)[C@H](c2ccccc2)[C@H]1CN1CCCCC1 (racemic) has a growth at 10 µM [1] of 1%, a growth at 10 µM [2] of 1% and a growth at 10 µM [3] of 1%.

CCN(CC)C[C@H]1C(=O)O[C@@H](c2ccccc2)[C@@H]1c1ccccc1 (racemic) showed a growth at 10 µM [1] of 0%, a growth at 10 µM [2] of 1% and a growth at 10 µM [3] of 1%.

With O=C1O[C@@H](c2ccccc2)[C@H](c2ccccc2)[C@H]1CN(Cc1ccccc1)C(=O)c1ccccc1 (racemic) the Activity (PANC-1) was “inactive”, the growth at 10 µM [1] was 81% and the growth at 10 µM [2] was 92%.

With CN(C)C[C@H]1C(=O)O[C@@H](c2ccccc2)[C@@H]1c1ccccc1 (racemic) the growth at 10 µM [1] was 0%, the growth at 10 µM [2] was 1% and the growth at 10 µM [3] was 0%.

Molecule C/C1=C\CC[C@@]2(C)O[C@@H]2[C@H]2OC(=O)[C@@H](CN(C)C)[C@@H]2CC1 [(DIMETHYLAMINO)PARTHENOLIDE FUMARIC ACID SALT] has a growth at 10 µM [1] of 7%, a growth at 10 µM [2] of 2% and a growth at 10 µM [3] of 17%.

With C=C1C(=O)O[C@@H]2[C@H]3O[C@]3(C)CC/C=C(\C)CC[C@@H]12 the growth at 10 µM [1] was 6%, the growth at 10 µM [2] was 3% and the growth at 10 µM [3] was 12%.

For O=C1O[C@@H](c2ccccc2)[C@H](c2ccccc2)[C@H]1CN1CCOCC1 (racemic), the growth at 10 µM [1] was 9%, the growth at 10 µM [2] was 10% and the growth at 10 µM [3] was 16%.

O=C1O[C@H](c2ccccc2)[C@H](c2ccccc2)[C@@H]1CN1CCOCC1 (racemic) gave a growth at 10 µM [1] of 6%, a growth at 10 µM [2] of 13% and a growth at 10 µM [3] of 19%.

With C=C1C(=O)O[C@H](c2ccccc2)[C@@H]1c1ccccc1 (racemic) the growth at 10 µM [1] was 8%, the growth at 10 µM [2] was 3% and the growth at 10 µM [3] was 38%.
